Measurements reported in patent US20160074374A1, “CORRECTORS ACTING THROUGH MSD1 OF CFTR PROTEIN” (VERTEX PHARMACEUTICALS INCORPORATED, priority 2013, published 2016).
Entries after “also recorded” stand apart in the source; their conditions may differ.

How the values were obtained:
mutant CFTR = molecular target: T1, mutant CFTR (Homo sapiens, UniProt P13569, E92K); test: Ussing chamber forskolin-stimulated chloride transport in Fisher Rat Thyroid cells expressing CFTR mutants; assay type: cell-based; details: Corr4a 15 μM
T1 construct: expressed in transfected cells
Description: Ussing chamber techniques with Fisher Rat Thyroid cells that are stably transfected with the indicated form of CFTR are used to record the transepithelial current (IT) resulting from CFTR-mediated chloride transport (Van Goor, et al., 2009, PNAS, 106: 18825-30). Standard conditions for Ussing chamber electrophysiological with different forms of CFTR measured forskolin (10 μM)-stimulated chloride transport that peaked at 205.5 μA/cm2 for normal CFTR.

V232D-CFTR = V232D-CFTR (Homo sapiens, UniProt P13569, V232D); details: cited from earlier work
ΔF508-CFTR = ΔF508-CFTR (Homo sapiens, UniProt P13569, DEL508-508); parameters: primary cultures of human bronchial epithelial cells isolated from subjects with CF; host or cells: primary human bronchial epithelial cells (Van Goor 2011); CF patients in a 28-day study (Clancy 2012); details: bronchial epithelial cells from CF subjects; cited from earlier work
[1] = molecular target: T2, N-terminal CFTR fragments (Homo sapiens, UniProt P13569); test: Steady-state accumulation of CFTR fragments, western blot, HEK293 cells; assay type: cell-based; details: bortezomib 10 μM
T2 construct: Indicated CFTR fragments were generated via introduction of a stop codon after the specified residue; expressed in transfected cells; host or cells: HEK293, transient, pcDNA3.1(+)-CFTR derivatives
Description: Steady-state levels of CFTR and its mutants are determined by western blot analysis. HEK293 cells are transiently transfected with the indicated plasmids (Grove, et al., 2011, Mol Biol Cell, 22: 301-14). The transfected cells are allowed to recover for approximately 18 hrs before addition of DMEM and then supplemented with lumacaftor or DMSO (control). The cells are incubated with the correctors for 24 hrs before isolating the cells for western blot analysis. The harvested cells are diluted with 2×SDS sample buffer (100 mM Tris-HCl (pH 6.8)/4% SDS/0.05% Bromophenol Blue/20% glycerol), sonicated, and heated at 37° C. prior to resolving the proteins on SDS-PAGE gels. The proteins are transferred to nitrocellulose membranes and the membranes are probed with the designated antibodies. Tubulin is used to indicate loading controls.
A set of CFTR fragments with domain boundaries that permitted them to accumulate in unstable or stable states are expressed in HEK293 cells, and the effect of 5 μM lumacaftor on the accumulation of different fragments is determined. As a point of reference, the impact of the proteasome inhibitor bortezomib on CFTR fragment accumulation is also measured.
Cells are treated for 4 hours with bortezomib or 18 hours at 37° C. with lumacaftor. The amount of CFTR fragment accumulation is determined by immunoblot.
To identify regions of CFTR required for lumacaftor activity, different length CFTR fragments were expressed in HEK-293 cells and their steady-state accumulation and half-life were quantified in biochemical assays (FIGS. 1A and B; FIG. 2). Since CFTR folding initiates cotranslationally and channel assembly is completed post-translationally (Higgins, 1992, Annual Review of Cell Biology, 8:67-113), CFTR fragments which may resemble folding intermediates have been used to study CFTR biogenesis. The underlying rationale is that differences in accumulation or half-life between different length CFTR fragments are believed to reflect differences in the stability of the protein conformation and resistance to endoplasmic reticulum associated degradation (ERAD). […] Differences in accumulation and halflife of CFTR fragments have been used successfully to identify Hsp70- and calnexin-dependent steps in CFTR folding and degradation pathways (Farinha and Amaral, 2005, Mol Cell Biol, 25:5242-52; Lukacs and Verkman, […], EMBO Journal, 13:6076-86; Meacham et al., 1999, EMBO Journal, 18:1492-1505; Okiyoneda et al., 2004, Mol Biol Cell, 15:563-574), to identify defective interactions between MSD1, NBD1 and MSD2 as an underlying cause of premature degradation of ΔF508-CFTR (Cui et al., 2007, J Mol Biol, 365:981-994; Du and Lukacs, 2009, Molecular Biology of the Cell, 20:1903-1915; Younger et al., 2006, Cell, 126:571-582), and to identify MSD2 as the site of action of the CFTR corrector, Corr-4a.

[2] = compared to CFTR^430 and CFTR^653

Chain of ΔF508-CFTR (P13569 with tags, fused parts or gaps DEL508-508): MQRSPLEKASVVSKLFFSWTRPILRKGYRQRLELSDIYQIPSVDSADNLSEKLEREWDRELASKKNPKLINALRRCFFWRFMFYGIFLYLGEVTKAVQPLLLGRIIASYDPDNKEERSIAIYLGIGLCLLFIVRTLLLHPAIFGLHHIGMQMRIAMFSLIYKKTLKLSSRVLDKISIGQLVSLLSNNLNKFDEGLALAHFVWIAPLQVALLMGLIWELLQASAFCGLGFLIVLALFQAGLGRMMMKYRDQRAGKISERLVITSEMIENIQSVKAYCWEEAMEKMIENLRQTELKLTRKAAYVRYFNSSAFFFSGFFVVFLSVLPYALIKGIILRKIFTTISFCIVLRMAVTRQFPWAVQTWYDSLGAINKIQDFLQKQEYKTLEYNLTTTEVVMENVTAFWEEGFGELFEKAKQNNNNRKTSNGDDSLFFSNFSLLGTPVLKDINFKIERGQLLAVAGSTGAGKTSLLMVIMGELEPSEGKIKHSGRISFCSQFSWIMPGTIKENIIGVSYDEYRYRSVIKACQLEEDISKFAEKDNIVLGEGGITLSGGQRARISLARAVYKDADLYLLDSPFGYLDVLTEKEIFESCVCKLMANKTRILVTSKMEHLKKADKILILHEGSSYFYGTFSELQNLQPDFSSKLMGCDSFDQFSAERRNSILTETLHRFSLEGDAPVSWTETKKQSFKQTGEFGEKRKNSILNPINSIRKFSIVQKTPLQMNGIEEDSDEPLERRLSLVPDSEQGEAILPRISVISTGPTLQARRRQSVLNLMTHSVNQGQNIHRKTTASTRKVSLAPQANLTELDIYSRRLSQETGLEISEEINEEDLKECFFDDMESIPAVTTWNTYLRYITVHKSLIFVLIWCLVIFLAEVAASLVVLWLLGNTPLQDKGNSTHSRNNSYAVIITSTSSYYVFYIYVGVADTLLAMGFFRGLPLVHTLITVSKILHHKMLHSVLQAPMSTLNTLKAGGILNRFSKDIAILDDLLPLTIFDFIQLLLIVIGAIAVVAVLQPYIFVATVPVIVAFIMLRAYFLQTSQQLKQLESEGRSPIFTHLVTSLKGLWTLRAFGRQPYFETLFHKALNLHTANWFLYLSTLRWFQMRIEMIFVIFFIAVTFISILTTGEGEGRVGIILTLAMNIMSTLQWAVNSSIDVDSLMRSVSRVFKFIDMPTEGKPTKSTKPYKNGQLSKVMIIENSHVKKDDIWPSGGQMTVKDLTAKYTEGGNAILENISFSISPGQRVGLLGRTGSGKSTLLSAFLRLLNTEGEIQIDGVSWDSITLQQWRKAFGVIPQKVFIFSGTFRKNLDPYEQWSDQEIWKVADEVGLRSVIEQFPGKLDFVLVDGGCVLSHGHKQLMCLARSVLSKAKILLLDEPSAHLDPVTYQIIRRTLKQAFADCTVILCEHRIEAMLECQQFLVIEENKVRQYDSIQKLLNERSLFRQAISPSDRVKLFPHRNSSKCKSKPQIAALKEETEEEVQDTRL
T1 sequence (P13569 whole entry E92K): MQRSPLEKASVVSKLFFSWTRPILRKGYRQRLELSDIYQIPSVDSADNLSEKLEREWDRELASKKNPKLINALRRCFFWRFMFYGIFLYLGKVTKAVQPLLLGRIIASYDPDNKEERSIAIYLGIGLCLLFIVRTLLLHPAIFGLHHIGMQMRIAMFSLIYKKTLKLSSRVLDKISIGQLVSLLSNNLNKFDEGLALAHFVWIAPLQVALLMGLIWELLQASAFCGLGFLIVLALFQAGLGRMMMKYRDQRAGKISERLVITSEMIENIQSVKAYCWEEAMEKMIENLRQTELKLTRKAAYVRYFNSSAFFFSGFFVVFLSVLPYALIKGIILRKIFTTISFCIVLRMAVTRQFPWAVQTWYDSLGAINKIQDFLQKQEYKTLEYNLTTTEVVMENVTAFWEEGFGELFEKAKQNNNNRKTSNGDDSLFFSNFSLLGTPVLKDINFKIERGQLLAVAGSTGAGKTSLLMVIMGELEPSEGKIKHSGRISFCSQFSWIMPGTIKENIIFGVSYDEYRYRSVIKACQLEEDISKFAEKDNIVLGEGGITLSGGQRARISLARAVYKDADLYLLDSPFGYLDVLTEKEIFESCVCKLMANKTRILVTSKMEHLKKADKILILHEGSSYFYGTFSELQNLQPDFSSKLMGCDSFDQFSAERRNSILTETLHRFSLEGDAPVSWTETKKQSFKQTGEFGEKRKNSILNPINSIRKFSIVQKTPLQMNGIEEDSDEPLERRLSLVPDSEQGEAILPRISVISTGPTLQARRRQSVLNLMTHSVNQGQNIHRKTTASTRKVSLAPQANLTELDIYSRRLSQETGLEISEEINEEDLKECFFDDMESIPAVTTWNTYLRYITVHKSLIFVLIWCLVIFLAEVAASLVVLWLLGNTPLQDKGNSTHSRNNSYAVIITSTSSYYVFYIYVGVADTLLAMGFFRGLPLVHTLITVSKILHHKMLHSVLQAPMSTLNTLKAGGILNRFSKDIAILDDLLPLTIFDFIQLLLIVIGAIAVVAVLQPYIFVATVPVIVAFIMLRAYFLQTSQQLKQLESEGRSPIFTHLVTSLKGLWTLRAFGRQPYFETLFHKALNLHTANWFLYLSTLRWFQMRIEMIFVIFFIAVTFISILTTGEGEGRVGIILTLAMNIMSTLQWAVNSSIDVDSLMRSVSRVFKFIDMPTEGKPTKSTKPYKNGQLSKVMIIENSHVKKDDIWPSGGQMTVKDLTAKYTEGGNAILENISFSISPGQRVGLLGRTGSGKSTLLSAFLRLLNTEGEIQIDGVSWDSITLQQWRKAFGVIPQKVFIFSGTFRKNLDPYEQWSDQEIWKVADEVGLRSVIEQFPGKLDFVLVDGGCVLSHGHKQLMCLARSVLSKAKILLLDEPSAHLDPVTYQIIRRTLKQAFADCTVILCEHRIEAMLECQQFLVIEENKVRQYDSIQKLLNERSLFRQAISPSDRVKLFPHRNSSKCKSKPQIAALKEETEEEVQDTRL
Chain of V232D-CFTR (P13569 whole entry V232D): as the sequence (P13569 whole entry E92K) above, with K92E, V232D counted along it

restoration of E92K-CFTR function (mutant CFTR) | increase in accumulation of CFTR^370 ([1]; 4 hours) | increase in accumulation of CFTR^530 ([1]; 4 hours) | sensitivity of CFTR^430 accumulation to proteasome inhibition ([1]; 4 hours) | sensitivity of CFTR^653 accumulation to proteasome inhibition ([1]; 4 hours) | effect of proteasome inhibition on CFTR^530 [1, 2] | SMILES | V232D-CFTR biogenesis and function (V232D-CFTR) | ΔF508-CFTR function (ΔF508-CFTR) | effect of proteasome inhibition on CFTR^370 [1, 2]
could not restore |  |  |  |  |  | COc1ccc(Cl)cc1Nc1nc(-c2sc(NC(=O)c3ccccc3)nc2C)cs1 [Corr-4a] | to normal levels | partially restored | 
 | 10 fold | 10 fold | relatively insensitive | relatively insensitive | more susceptible | CC(C)C[C@H](NC(=O)[C@H](Cc1ccccc1)NC(=O)c1cnccn1)B(O)O [bortezomib] |  |  | more susceptible; also recorded: able to increase the stability
